# Like-named read-outs stand apart in the source and are kept apart here.
# Experiment: Lung-tissue pharmacokinetics of PG–OJ components in tumor-bearing mice (UPLC–MS/MS)
# Format: in vivo, BALB/c nude male mice
# Details: for Cmax: read-out: Cmax; for MRT last: read-out: MRT(0–t) (converted)
# Excerpt: This study employed Ultra-Performance Liquid Chromatography–Mass Spectrometry (UPLC–MS/MS) to examine the pharmacokinetic properties of 20 bioactive components in a cell-derived xenograft (CDX) model following oral administration of a 10.2 g/kg PG–OJ extract.
# Healthy BALB/c nude male mice (weight: 18–21 g) were purchased from Beijing Huafukang Biotechnology Co., Ltd. (Beijing, China, License Number: SCXK (Jing) 2021-0006). After 3 days of acclimatization, the mice were randomly divided into the control group (CG), model group (MG), and the combined-administration group of P. ginseng and O. japonicus (HM1-HM13) ([…], four-fold clinical-equivalent doses). Subsequently, except for the CG, 0.2 mL (approximately 2 × 10^7 cells) of A549 cell suspension was aspirated with a 1 mL syringe and injected into the right axillary fossa of the model group and drug-administration-group mice. The control-group mice were injected with an equal volume of PBS at the same location. The tumor diameter was measured daily using a caliper. The model was successful when the tumor diameter > 3 mm. The combined-administration group of P. ginseng and O. japonicus was given the corresponding drug orally, once a day, with 0.2 mL/mouse each time. The control group and the model group mice were given the same volume of distilled water, continuously orally for 21 days. During this period, the body weight and tumor volume of the mice were recorded. At the end of the last administration, the mice were […] 0.083, 0.167, 0.25, 0.5, 0.75, 1, 2, 3, 4, 6, 8, 12, 24 h later. After injecting 0.1% pentobarbital sodium, blood was collected from the eye-socket vein, the mice were decapitated, and the tumor and lung tissues were carefully removed.
# After homogenizing 50 mg of right-lung-tissue sample, 2 mL of acetonitrile was added to precipitate proteins. The mixture was oscillated for 2 min and then centrifuged for 10 min (12,000 rpm, 4 °C). The supernatant from the new centrifuge tube was collected and dried with nitrogen at room temperature. Finally, the supernatant was redissolved in 50 μL of acetonitrile solution containing 0.1% formic acid. After oscillating for 1 min, another centrifugation step was performed, and the resulting supernatant was used for analysis.
# Samples were analyzed on the Vanquish UPLC System (Thermo, Waltham, MA, USA). The Agilent C18 column (4.6 × 150 mm, 4 μm, PN:693970-902T) was selected. The mobile phase was composed of 0.1% formic acid aqueous solution (A) and 0.1% formic acid acetonitrile solution (B). The procedure of gradient elution was as follows: 0–10 min, 95–75% A; 10–25 min, 75–45% A; 25–40 min, 45–30% A; 40–50 min, 30–5% A; 55–55.1 min, 5–95% A; 55.1–60 min, 95% A. The column temperature was set to 30 °C with the flow rate of 0.3 mL/min and the injection volume of 3.0 μL. The mass-spectrometry detection with negative-ion mode was carried out using an Orbitrap Exploris 120 Mass Spectrometer (Thermo, Waltham, MA, USA) and Electrospray ionization (ESI). The sheath-gas-flow rate was […] and the auxiliary-gas-flow rate was […]. The capillary temperature was 325 °C, and the resolution was 120,000 in full scan mode with the mass scan range of 80~1500 m/z. The secondary cracking was performed with HCD at a collision voltage of 30 eV, and unnecessary MS/MS information was removed using the dynamic exclusion method.
# [1] = lung tissue, A549 tumor-bearing mice, intragastric PG–OJ extract 10.2 g/kg (6.8 g/kg elsewhere in the source), mean ± SD, n = 6
# [2] = male, BALB/c nude, mouse, po, lung tissue, A549 tumor-bearing mice, intragastric PG–OJ extract 10.2 g/kg (6.8 g/kg elsewhere in the source), mean ± SD, n = 6
# [3] = male, BALB/c nude, mouse, in vivo, po, lung tissue, A549 tumor-bearing mice, intragastric PG–OJ extract 10.2 g/kg (6.8 g/kg elsewhere in the source), mean ± SD, n = 6
compound,measurement,setting,value
CC(C)=CC/C=C(\C)[C@H]1CC[C@]2(C)[C@@H]1[C@H](O)C[C@@H]1[C@@]3(C)CC[C@H](O[C@@H]4O[C@H](CO)[C@@H](O)[C@H](O)[C@H]4O[C@@H]4O[C@H](CO)[C@@H](O)[C@H](O)[C@H]4O)C(C)(C)[C@@H]3CC[C@]12C [Ginsenoside Rg5],AUC(0–t),[1],"1,342,117.43 ± 45,675.73 ng/g·min"
same,AUC(0–∞),[1],"1,372,202.28 ± 48,963.33 ng/g·min"
same,AUC(0–∞) compared with other components,"lung tissue, oral PG–OJ extract, in words",significantly higher than those of other components
same,Tmax,"male, BALB/c nude, mouse, lung tissue, po, 10.2 g/kg, lung tissue, A549 tumor-bearing mice, intragastric PG–OJ extract 10.2 g/kg (6.8 g/kg elsewhere in the source), mean ± SD, n = 6, read-out: Tmax (converted)",4 h
same,Tmax,"male, BALB/c nude, mouse, lung tissue, po, 10.2 g/kg, lung tissue, oral PG–OJ extract, read-out: time to reach peak concentration",12 h
same,Cmax,[2],7970 ± 442 ng/g
same,MRT last,[2],3.07 h
same,half-life,"male, BALB/c nude, mouse, po, lung tissue, A549 tumor-bearing mice, intragastric PG–OJ extract 10.2 g/kg (6.8 g/kg elsewhere in the source), mean ± SD, n = 6, read-out: T1/2",2.11 ± 0.157 h
same,exposure level in lung tissue,"oral PG–OJ extract, in words",highest exposure level
CC(C)=CCC[C@](C)(O)[C@H]1CC[C@]2(C)[C@@H]1[C@H](O)C[C@@H]1[C@@]3(C)CC[C@H](O)C(C)(C)[C@@H]3[C@@H](O[C@@H]3O[C@H](CO)[C@@H](O)[C@H](O)[C@H]3O)C[C@]12C [Ginsenoside Rh1],AUC(0–t),[1],1303.44 ± 70.16 ng·min/g
same,AUC(0–∞),[1],1724.14 ± 411.48 ng·min/g
same,time to reach maximum concentration (Cmax) after administration,"lung tissue, oral PG–OJ extract",≤ 15 min
same,half-life,"male, BALB/c nude, mouse, in vivo, po, 10.2 g/kg, lung tissue, A549 tumor-bearing mice, intragastric PG–OJ extract 10.2 g/kg (6.8 g/kg elsewhere in the source), mean ± SD, n = 6, read-out: T1/2",6.97 ± 4.9 h
same,half-life,"male, BALB/c nude, mouse, in vivo, po, 10.2 g/kg, lung tissue, oral PG–OJ extract, read-out: half-life (converted)",6.9 h
same,Cmax,[3],8.98 ± 0.2 ng/g
same,MRT last,[3],3.18 h
same,Tmax,"male, BALB/c nude, mouse, in vivo, po, lung tissue, A549 tumor-bearing mice, intragastric PG–OJ extract 10.2 g/kg (6.8 g/kg elsewhere in the source), mean ± SD, n = 6, read-out: Tmax (converted)",0.208 h
same,exposure level in lung tissue,"oral PG–OJ extract, in words",extremely low
CC1(C)CC[C@]2(C(=O)O[C@@H]3O[C@H](CO)[C@@H](O)[C@H](O)[C@H]3O)CC[C@]3(C)C(=CC[C@@H]4[C@@]5(C)CC[C@H](O[C@@H]6O[C@H](C(=O)O)[C@@H](O)[C@H](O)[C@H]6O[C@@H]6O[C@H](CO)[C@@H](O)[C@H](O)[C@H]6O)C(C)(C)[C@@H]5CC[C@]43C)[C@@H]2C1 [Ginsenoside Ro],T1/2,"mouse, in vivo, po",4.2077 ± 0.198 h
same,Tmax,"mouse, in vivo, po",0.2083 ± 0.0482 h
same,time to reach maximum concentration (Cmax) after administration,"mouse, in vivo, po",≤ 15 min
Cc1c(O)c(C)c2c(c1O)C(=O)[C@H](Cc1ccc3c(c1)OCO3)CO2 [Methylophiopogonanone A],T1/2,"mouse, in vivo, po",20.3208 ± 6.0457 h
same,Tmax,"mouse, in vivo, po",2.5 ± 0 h
COc1ccc(C[C@@H]2COc3c(C)c(O)c(C)c(O)c3C2=O)cc1 [Methylophiopogonanone B],T1/2,"mouse, in vivo, po",6.5088 ± 1.6737 h
same,Tmax,"mouse, in vivo, po",2.5 ± 0 h
CC(C)=CCC[C@](C)(O[C@@H]1O[C@H](CO)[C@@H](O)[C@H](O)[C@H]1O)[C@H]1CC[C@]2(C)[C@@H]1[C@H](O)C[C@@H]1[C@@]3(C)CC[C@H](O)C(C)(C)[C@@H]3[C@@H](O[C@@H]3O[C@H](CO)[C@@H](O)[C@H](O)[C@H]3O[C@@H]3OC[C@@H](O)[C@H](O)[C@H]3O)C[C@]12C [Notoginsenoside R1],T1/2,"mouse, in vivo, po",1.24 ± 0.0245 h
same,Tmax,"mouse, in vivo, po",0.125 ± 0.059 h
same,exposure level in lung tissue,"mouse, in vivo, po",extremely low
same,time to reach maximum concentration (Cmax) after administration,"mouse, in vivo, po",≤ 15 min
CC(C)(O)[C@H]1CC[C@@](C)([C@H]2CC[C@]3(C)[C@@H]2[C@H](O)C[C@@H]2[C@@]4(C)CC[C@H](O)C(C)(C)[C@@H]4[C@@H](O[C@@H]4O[C@H](CO)[C@@H](O)[C@H](O)[C@H]4O)C[C@]23C)O1 [Pseudoginsenoside RT5],T1/2,"mouse, in vivo, po",10.572 ± 2.3632 h
same,Tmax,"mouse, in vivo, po",0.25 ± 0 h
same,half-life,"mouse, in vivo, po",10.6 h
same,time to reach maximum concentration (Cmax) after administration,"mouse, in vivo, po",≤ 15 min
